Experimental data published in US8278345B2, “Inhibitors of glutaminyl cyclase” (Probiodrug AG, priority 2006, dated 2012).

target: hQC (Homo sapiens, UniProt Q16769); experiment: Inhibitor assay for glutaminyl cyclase activity (fluorometric, H-Gln-βNA / H-Gln-AMC); assay type: biochemical; settings: compound from preparative synthesis, purified; read-out: IC50 hQC
Description: All measurements were performed with a BioAssay Reader HTS-7000Plus for microplates (Perkin Elmer) at 30° C. QC activity was evaluated fluorometrically using H-Gln-βNA. The samples consisted of 0.2 mM fluorogenic substrate, 0.25 U pyroglutamyl aminopeptidase (Unizyme, Hørsholm, Denmark) in 0.2 M Tris/HCl, pH 8.0 containing 20 mM EDTA and an appropriately diluted aliquot of QC in a final volume of 250 μl. Excitation/emission wavelengths were 320/410 nm. The assay reactions were initiated by addition of glutaminyl cyclase. QC activity was determined from a standard curve of β-naphthylamine under assay conditions. One unit is defined as the amount of QC catalyzing the formation of 1 μmol pGlu-βNA from H-Gln-βNA per minute under the described conditions.
In a second fluorometric assay, QC activity was determined using H-Gln-AMC as substrate. Reactions were carried out at 30° C. utilizing the NOVOStar reader for microplates (BMG labtechnologies). The samples consisted of varying concentrations of the fluorogenic substrate, 0.1 U pyroglutamyl aminopeptidase (Qiagen) in 0.05 M Tris/HCl, pH 8.0 containing 5 mM EDTA and an appropriately diluted aliquot of QC in a final volume of 250 μl. Excitation/emission wavelengths were 380/460 nm. The assay reactions were initiated by addition of glutaminyl cyclase. QC activity was determined from a standard curve of 7-amino-4-methylcoumarin under assay conditions. The kinetic data were evaluated using GraFit sofware.
For inhibitor testing, the sample composition was the same as described above, except of the putative inhibitory compound added. For a rapid test of QC-inhibition, samples contained 4 mM of the respective inhibitor and a substrate concentration at 1 KM. For detailed investigations of the inhibition and determination of Ki-values, influence of the inhibitor on the auxiliary enzymes was investigated first. In every case, there was no influence on either enzyme detected, thus enabling the reliable determination of the QC inhibition. The inhibitory constant was evaluated by fitting the set of progress curves to the general equation for competitive inhibition using GraFit software.

hQC, sequence (Q16769 29-361): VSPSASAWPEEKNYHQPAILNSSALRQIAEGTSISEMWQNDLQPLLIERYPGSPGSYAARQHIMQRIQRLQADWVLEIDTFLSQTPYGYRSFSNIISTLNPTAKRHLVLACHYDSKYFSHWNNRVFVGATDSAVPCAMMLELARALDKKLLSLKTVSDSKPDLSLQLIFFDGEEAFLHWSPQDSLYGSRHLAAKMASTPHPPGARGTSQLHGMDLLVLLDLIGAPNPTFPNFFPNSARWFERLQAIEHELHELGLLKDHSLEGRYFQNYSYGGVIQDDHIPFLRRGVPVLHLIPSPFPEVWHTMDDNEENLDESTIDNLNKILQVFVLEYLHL

Row | IC50 | SMILES
1 | 344 nM | O=C1C(O)=C(c2ccc(O)cc2)C(c2ccccc2F)N1CCCn1ccnc1 (centres unmarked) [Compound 180, 5-(2-Fluoro-phenyl)-3-hydroxy-4-(4-hydroxy-phenyl)-1-(3-imidazol-1-yl-propyl)-1,5-dihydro-pyrrol-2-one]
2 | 562 nM | Cc1ccc(C2C(c3c[nH]c4ccccc34)=C(O)C(=O)N2CCCn2ccnc2)cc1C (centres unmarked) [Compound 123, 5-(3,4-Dimethyl-phenyl)-3-hydroxy-1-(3-imidazol-1-yl-propyl)-4-(1H-indol-3-yl)-1,5-dihydro-pyrrol-2-one]
3 | 1750 nM | CCCCCC1=C(O)C(=O)N(CCCn2ccnc2)C1c1ccc(C)o1 (centres unmarked) [Compound 191, 3-Hydroxy-1-(3-imidazol-1-yl-propyl)-5-(5-methyl-furan-2-yl)-4-pentyl-1,5-dihydro-pyrrol-2-one]

same assay, conditions: read-out: IC50

Row | IC50 | SMILES
4 | 400 nM | CCC1=C(O)C(=O)N(CCCn2ccnc2)C1c1c[nH]c2cc(C)ccc12 (centres unmarked) [Compound 239, 4-Ethyl-3-hydroxy-1-(3-imidazol-1-yl-propyl)-5-(6-methyl-1H-indol-3-yl)-1,5-dihydro-pyrrol-2-one]
5 | 400 nM | CCC1C(c2ccc(O)cc2)=C(O)C(=O)N1CCCn1ccnc1 (centres unmarked) [Compound 178, 5-Ethyl-3-hydroxy-4-(4-hydroxy-phenyl)-1-(3-imidazol-1-yl-propyl)-1,5-dihydro-pyrrol-2-one]
6 | 7150 nM | Cc1ccc(O)c(C2C(c3ccc(O)cc3)=C(O)C(=O)N2c2ccc3[nH]cnc3c2)c1 (centres unmarked) [Compound 284, 1-(1H-Benzoimidazol-5-yl)-3-hydroxy-5-(2-hydroxy-5-methyl-phenyl)-4-(4-hydroxy-phenyl)-1,5-dihydro-pyrrol-2-one]
7 | 6970 nM | CCC1=C(O)C(=O)N(c2ccc3[nH]cnc3c2)C1c1c(F)c(F)cc(F)c1F (centres unmarked) [Compound 400, 1-(1H-Benzoimidazol-5-yl)-4-ethyl-3-hydroxy-5-(2,3,5,6-tetrafluoro-phenyl)-1,5-dihydro-pyrrol-2-one]
8 | 1030 nM | CC(C)(C)C(=O)C1=C(O)C(=O)N(c2ccc3[nH]cnc3c2)C1c1ccc2cccc(O)c2n1 (centres unmarked) [Compound 310, 1-(1H-Benzoimidazol-5-yl)-4-(2,2-dimethyl-propionyl)-3-hydroxy-5-(8-hydroxy-quinolin-2-yl)-1,5-dihydro-pyrrol-2-one]
9 | 4990 nM | O=C1C(O)=C(F)C(c2ccccc2F)N1c1ccc2[nH]cnc2c1 (centres unmarked) [Compound 462, 1-(1H-Benzoimidazol-5-yl)-4-fluoro-5-(2-fluoro-phenyl)-3-hydroxy-1,5-dihydro-pyrrol-2-one]
10 | 400 nM | CCCCCC1=C(O)C(=O)N(CCCn2ccnc2)C1CCCC (centres unmarked) [Compound 214, 5-Butyl-3-hydroxy-1-(3-imidazol-1-yl-propyl)-4-pentyl-1,5-dihydro-pyrrol-2-one]
11 | 1300 nM | CCC1=C(O)C(=O)N(CCCn2ccnc2)C1c1cc[nH]n1 (centres unmarked) [Compound 224, 4-Ethyl-3-hydroxy-1-(3-imidazol-1-yl-propyl)-5-(1H-pyrazol-3-yl)-1,5-dihydro-pyrrol-2-one]
12 | 8320 nM | CCC1=C(O)C(=O)N(c2ccc3[nH]cnc3c2)C1c1ccc(N2CCCC2)cc1 (centres unmarked) [Compound 406, 1-(1H-Benzoimidazol-5-yl)-4-ethyl-3-hydroxy-5-(4-pyrrolidin-1-yl-phenyl)-1,5-dihydro-pyrrol-2-one]
13 | 3100 nM | CC1=C(O)C(=O)N(c2ccc3[nH]cnc3c2)C1c1csc2ccccc12 (centres unmarked) [Compound 347, 5-Benzo[b]thiophen-3-yl-1-(1H-benzoimidazol-5-yl)-3-hydroxy-4-methyl-1,5-dihydro-pyrrol-2-one]
14 | 7690 nM | Cc1ccc(O)c(C2C(c3c[nH]c4ccccc34)=C(O)C(=O)N2c2ccc3[nH]cnc3c2)c1 (centres unmarked) [Compound 332, 1-(1H-Benzoimidazol-5-yl)-3-hydroxy-5-(2-hydroxy-5-methyl-phenyl)-4-(1H-indol-3-yl)-1,5-dihydro-pyrrol-2-one]
15 | 5260 nM | CSCC1=C(O)C(=O)N(c2ccc3[nH]cnc3c2)C1c1cccc(F)c1 (centres unmarked) [Compound 299, 1-(1H-Benzoimidazol-5-yl)-5-(3-fluoro-phenyl)-3-hydroxy-4-methylsulfanylmethyl-1,5-dihydro-pyrrol-2-one]
16 | 850 nM | Cc1ccc2occ(C3C(c4ccccc4)=C(O)C(=O)N3c3ccc4[nH]cnc4c3)c(=O)c2c1 (centres unmarked) [Compound 262, 1-(1H-Benzoimidazol-5-yl)-3-hydroxy-5-(6-methyl-4-oxo-4H-chromen-3-yl)-4-phenyl-1,5-dihydro-pyrrol-2-one]
17 | 1210 nM | CC(=O)C1=C(O)C(=O)N(c2ccc3[nH]cnc3c2)C1c1cc(C)c(C)o1 (centres unmarked) [Compound 433, 4-Acetyl-1-(1H-benzoimidazol-5-yl)-5-(4,5-dimethyl-furan-2-yl)-3-hydroxy-1,5-dihydro-pyrrol-2-one]
18 | 3100 nM | O=C1C(O)=C(c2ccccc2)C(c2cc[nH]n2)N1CCCn1ccnc1 (centres unmarked) [Compound 81, 3-Hydroxy-1-(3-imidazol-1-yl-propyl)-4-phenyl-5-(1H-pyrazol-3-yl)-1,5-dihydro-pyrrol-2-one]
19 | 1570 nM | CCCC(=O)C1=C(O)C(=O)N(c2ccc3[nH]cnc3c2)C1c1ccnc2ccccc12 (centres unmarked) [Compound 404, 1-(1H-Benzoimidazol-5-yl)-4-butyryl-3-hydroxy-5-quinolin-4-yl-1,5-dihydro-pyrrol-2-one]

Row | IC50 | SMILES
20 | 40 nM | O=C1C(O)=C(c2c[nH]c3ccccc23)C(c2ccc3nonc3c2)N1c1ccc2[nH]cnc2c1 (centres unmarked) [Compound 390, 1-(1H-Benzoimidazol-5-yl)-5-(benzo[c][1,2,5]oxadiazol-5-yl)-3-hydroxy-4-(1H-indol-3-yl)-1,5-dihydro-pyrrol-2-one]
21 | 6790 nM | CCCC(=O)C1=C(O)C(=O)N(c2ccc3[nH]cnc3c2)C1c1cc(C(F)(F)F)cc(C(F)(F)F)c1 (centres unmarked) [Compound 335, 1-(1H-Benzoimidazol-5-yl)-5-(3,5-bis-trifluoromethyl-phenyl)-4-butyryl-3-hydroxy-1,5-dihydro-pyrrol-2-one]
22 | 2110 nM | Cc1ccc(C2C(C(=O)c3ccc(Cl)cc3)=C(O)C(=O)N2c2ccc3[nH]cnc3c2)o1 (centres unmarked) [Compound 459, 1-(1H-Benzoimidazol-5-yl)-4-(4-chloro-benzoyl)-3-hydroxy-5-(5-methyl-furan-2-yl)-1,5-dihydro-pyrrol-2-one]
23 | 400 nM | O=C1C(O)=C(c2ccc(O)cc2)C(CO)N1CCCn1ccnc1 (centres unmarked) [Compound 174, 3-Hydroxy-5-hydroxymethyl-4-(4-hydroxy-phenyl)-1-(3-imidazol-1-yl-propyl)-1,5-dihydro-pyrrol-2-one]
24 | 8500 nM | O=C1C(O)=C(c2ccccc2)C(c2ccncc2)N1CCCn1ccnc1 (centres unmarked) [Compound 102, 3-Hydroxy-1-(3-imidazol-1-yl-propyl)-4-phenyl-5-pyridin-4-yl-1,5-dihydro-pyrrol-2-one]
25 | 40 nM | O=C1C(O)=C(c2ccccc2)C(CO)N1CCCn1ccnc1 (centres unmarked) [Compound 104, 3-Hydroxy-5-hydroxymethyl-1-(3-imidazol-1-yl-propyl)-4-phenyl-1,5-dihydro-pyrrol-2-one]
26 | 400 nM | CCC1=C(O)C(=O)N(CCCn2ccnc2)C1c1ccccn1 (centres unmarked) [Compound 243, 4-Ethyl-3-hydroxy-1-(3-imidazol-1-yl-propyl)-5-pyridin-2-yl-1,5-dihydro-pyrrol-2-one]
27 | 6700 nM | CC(C)/C=C/C1C(c2ccccc2)=C(O)C(=O)N1CCCn1ccnc1 (centres unmarked) [Compound 83, 3-Hydroxy-1-(3-imidazol-1-yl-propyl)-5-(3-methyl-but-1-enyl)-4-phenyl-1,5-dihydro-pyrrol-2-one]
28 | 40 nM | CCC1=C(O)C(=O)N(CCCn2ccnc2)C1C1=CCCCC1 (centres unmarked) [Compound 238, 5-Cyclohex-1-enyl-4-ethyl-3-hydroxy-1-(3-imidazol-1-yl-propyl)-1,5-dihydro-pyrrol-2-one]
29 | 400 nM | Cc1cccc(C2C(C(=O)c3ccsc3)=C(O)C(=O)N2c2ccc3[nH]cnc3c2)n1 (centres unmarked) [Compound 306, 1-(1H-Benzoimidazol-5-yl)-3-hydroxy-5-(6-methyl-pyridin-2-yl)-4-(thiophene-3-carbonyl)-1,5-dihydro-pyrrol-2-one]
30 | 4900 nM | CCCC1C(C)=C(O)C(=O)N1CCCn1ccnc1 (centres unmarked) [Compound 22, 3-Hydroxy-1-(3-imidazol-1-yl-propyl)-4-methyl-5-propyl-1,5-dihydro-pyrrol-2-one]
31 | 40 nM | O=C1C(O)=C(c2ccc(O)cc2)C(c2ccccc2F)N1CCCn1ccnc1 (centres unmarked) [Compound 180, 5-(2-Fluoro-phenyl)-3-hydroxy-4-(4-hydroxy-phenyl)-1-(3-imidazol-1-yl-propyl)-1,5-dihydro-pyrrol-2-one]
32 | 40 nM | Cc1ccc(C2C(c3c[nH]c4ccccc34)=C(O)C(=O)N2CCCn2ccnc2)cc1C (centres unmarked) [Compound 123, 5-(3,4-Dimethyl-phenyl)-3-hydroxy-1-(3-imidazol-1-yl-propyl)-4-(1H-indol-3-yl)-1,5-dihydro-pyrrol-2-one]
33 | 40 nM | CCCCCC1=C(O)C(=O)N(CCCn2ccnc2)C1c1ccc(C)o1 (centres unmarked) [Compound 191, 3-Hydroxy-1-(3-imidazol-1-yl-propyl)-5-(5-methyl-furan-2-yl)-4-pentyl-1,5-dihydro-pyrrol-2-one]
34 | 400 nM | CCCC1C(c2cccc(O)c2)=C(O)C(=O)N1CCCn1ccnc1 (centres unmarked) [Compound 7, 3-Hydroxy-4-(3-hydroxy-phenyl)-1-(3-imidazol-1-yl-propyl)-5-propyl-1,5-dihydro-pyrrol-2-one]
35 | 1390 nM | Cc1cc(C2C(c3ccc(O)cc3)=C(O)C(=O)N2c2ccc3[nH]cnc3c2)oc1C (centres unmarked) [Compound 271, 1-(1H-Benzoimidazol-5-yl)-5-(4,5-dimethyl-furan-2-yl)-3-hydroxy-4-(4-hydroxy-phenyl)-1,5-dihydro-pyrrol-2-one]
